# “Also recorded” adds a separate entry of the source. Residues, ends and D or L forms follow the SMILES beside them.
# Columns and labels:
# [1] = tested on: mouse and human Fzd-1 and -2; experiment: Antagonism of activation of mouse and human Fzd-1 and -2 by Wnt3a (data not shown); type: cell-based
# From the text: (§1) In FIG. 3, Panel E, the efficacy of UM206 to block the Wnt3a-induced activation of luciferase activity in HEK293 superTOPflash cells transfected with different Fzds is shown.
# myocardial infarction [2] = experiment: Echocardiography of mice after myocardial infarction; type: in vivo; conditions: UM206-treated group post-MI
# Description: All animals were subjected to extensive echocardiography studies for the assessment of myocardial infarct size, LV cavity dimensions and ventricular function. Echocardiography examination was performed under 2% isofluorane. Echocardiograms were recorded with Philips Sonos 5500 ultrasound system (Philips, Eindhoven, the Netherlands) using a 20-MHz linear probe.
# hFzd-5 = target: T1, hFzd-5 (Homo sapiens, UniProt Q13467); experiment: Receptor specificity: luciferase in HEK293 superTOPflash cells overexpressing hFzd-5; type: cell-based; conditions: UM206 1.10^−8 M
# T1 construct: expressed in transfected cells; host or cells: HEK293 superTOPflash (transient, Fugene6, pcDNA3.0)
# Description: as §1
# The cell lines were cultured in 75 cm^2 culture flasks (Corning, Schiphol, the Netherlands) in Dulbeco's modified essential medium with L-glutamine (2 mM), 10% fetal calf serum (Invitrogen, Merelbeke, Belgium), and 1% gentamycin (Sigma-Aldrich, Zwijndrecht, The Netherlands). Before starting the experiment, the cell lines were treated with plasmocin 25 μg/ml (Invivogen, Toulose, France) and tested with a mycoalert mycoplasma detection kit (Lonza, Rockland Me., USA). Cells were transiently transfected with Fugene6 (Roche, Indianapolis Ind., USA) with plasmid DNA, pcDNA3.1/hygro (Invitrogen) with frizzled-1/2/4 or Wnts 3a-5a or with pcDNA3.0 (Invitrogen) containing the β-catenin or frizzled-5 sequence. After transfection, the cells were cultured for 24 hours in conditioned medium, collected from the cultured L-cells, L-cells with Wnt3a or 5a (Invitrogen). At the same moment the antagonist was added.
# C-FIT cells = experiment: Differentiation assay (α-SMA, fibroblast to myofibroblast) in C-FIT cells; type: cell-based, rat
# From the text: For this assay, we used the same C-FIT cells as for the migration assay to study a second component of wound healing, namely, differentiation of fibroblasts into myofibroblasts. When wound healing starts, cells called fibroblasts migrate into the scar. These cells have no contractile properties; however, they can differentiate into myofibroblasts, which can actively contract. To study which signals influence the transition from fibroblast into myofibroblasts, we treated the C-FIT cells and harvested them for mRNA isolation. Next, we tested them for the presence of specific markers for myofibroblasts by reverse transcription of the mRNA and subsequent quantitative PCR analysis, which are absent in fibroblasts. One of those markers is α-smooth muscle actin, which makes the cells contract.
# (§2) RNA was isolated using the Trizol method (Invitrogen). For the RT-PCR, the RNA was transcribed to cDNA with Iscript™ cDNA synthesis kit (Bio-Rad, Hercules Calif., USA), Syber green (Eurogentec, Ghent, Belgium) was used for the detection of cDNA levels and cyclophilin served as the house keeping gene. In Supplementary methods panel 5, the primer sequences are shown.
# myocardial infarction [3] = experiment: Hemodynamic measurements (Millar catheter, left ventricle) of mice after myocardial infarction; type: in vivo; conditions: UM206-treated groups post-MI
# Description: Cardiac function was further assessed using a Millar pressure recording catheter inserted into the left ventricle. […] These observations further underscore the beneficial effect of UM206 treatment on cardiac function post-MI.
# The animals were anaesthetized with urethane ([…], i.p., Sigma-Aldrich) followed by intubation and connected to a rodent ventilator (Hugo Sachs, March-Hugstetten, Germany). Body temperature was maintained at 37° C. The mice were then allowed to stabilize prior to hemodynamic measurements. A high-fidelity catheter tip micromanometer (Mikro-tip1.4F, SPR-671; Millar Instruments, Houston Tex., USA) was inserted through the right carotid artery into the left ventricular cavity. Ventricular pressure was measured. Maximal positive and negative pressure development (+dP/dt and −dP/dt) and heart rate were determined on a beat-to-beat basis. The heart was then stimulated by an i.v. ramp-infusion of dobutamine (Sigma-Aldrich) using a micro-injection pump (Model 200 Series, KdScientific, Boston, Mass., USA).
# infarct area = experiment: Histological, qPCR and Western blot analysis of the infarct area in mice; type: in vivo
# From the text: This was confirmed by histological analysis of the infarct area.
# as §2
# For Western blot, cells were homogenized in ice-cold Laemmli buffer and protein content was measured using the BCA protein assay (Pierce Biotechnology Inc., Rockford Ill., USA); proteins were denatured by boiling, separated on a 10% SDS-page gel, and transferred onto a Hybond C nitrocellulose membrane (Amersham Biosciences, Little Chalfont, United Kingdom). After blocking, membranes were incubated overnight at 4° C. with primary antibodies against β-catenin, α-SMA (both 1:2000, BD Biosciences, Franklin Lakes N.J., USA) or β-actin (1:2000 Sigma-Aldrich). Anti-mouse immunoglobulin G 1/5000 (Vector Labs Inc.) was used as the secondary antibody, and the membranes were developed using the Supersignal West Pico chemiluminescence kit (Pierce). Images of the blots were analyzed with image analysis software (Qwin Leica, Cambridge, United Kingdom).
# One-half of the hearts of the mice was embedded in paraffin and cut in 4 μm sections. The paraffin sections were rehydrated and washed in PBS. One section was stained with AZAN, allowing an accurate determination of the infarct size. To visualize the myofibroblasts in the infarct area, the sections were incubated with an antibody directed against α-smooth muscle actin (Sigma-Aldrich), followed by incubation with the peroxidase-conjugated secondary antibody (Vector laboratories). Nuclei were visualized by hematoxylin. Photos were taken with a Leica (CTR500, 63×/0.85) camera and analyzed with the Quantimet program (QWin/QGo). An examiner blinded to the groups of the animals obtained all measurements. For the experiments with Rhodamine-labeled UM206, frozen sections (4 μm) of mouse kidney and small intestine were used.
# T1 sequence (Q13467 27-585): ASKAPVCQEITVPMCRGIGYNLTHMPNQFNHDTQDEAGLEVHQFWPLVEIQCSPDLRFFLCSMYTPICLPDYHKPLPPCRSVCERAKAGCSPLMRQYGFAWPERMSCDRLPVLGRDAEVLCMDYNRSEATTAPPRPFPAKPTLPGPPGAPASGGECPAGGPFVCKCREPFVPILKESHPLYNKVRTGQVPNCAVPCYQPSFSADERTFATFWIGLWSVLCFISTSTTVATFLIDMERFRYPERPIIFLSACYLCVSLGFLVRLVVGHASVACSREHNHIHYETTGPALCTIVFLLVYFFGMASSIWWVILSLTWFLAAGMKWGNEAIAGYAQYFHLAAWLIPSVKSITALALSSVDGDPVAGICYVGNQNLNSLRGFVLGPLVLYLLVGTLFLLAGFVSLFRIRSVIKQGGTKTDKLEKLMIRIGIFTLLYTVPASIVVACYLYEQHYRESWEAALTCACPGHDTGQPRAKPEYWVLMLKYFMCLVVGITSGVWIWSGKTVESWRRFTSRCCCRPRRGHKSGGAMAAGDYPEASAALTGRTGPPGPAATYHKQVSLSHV
smiles,measurement,setting,value
"CSCC[C@H](NC(=O)CNC(=O)[C@H](CCC(=O)O)NC(=O)[C@H](CO)NC(=O)[C@@H](NC(=O)[C@H](CCCCN)NC(=O)[C@H](CC(N)=O)NC(=O)[C@H](CS)NC(C)=O)[C@@H](C)O)C(=O)N[C@@H](CC(=O)O)C(=O)NCC(=O)N[C@@H](CS)C(=O)N[C@@H](CCC(=O)O)C(=O)N[C@@H](CC(C)C)C(N)=O [UM206, Ac-Cys-Asn-Lys-Thr-Ser-Glu-Gly-Met-Asp-Gly-Cys-Glu-Leu-NH2] (Ac-CNKTSEGMDGCEL-NH2)",antagonizing the activation of mouse and human Fzd-1 and -2 by Wnt3a,[1],fully effective
same,change of ejection fraction versus saline,myocardial infarction [2],doubling of the ejection fraction
same,reduction in end diastolic volume of the left ventricle versus saline,myocardial infarction [2],40%
same,"effect on Wnt3a-induced luciferase activity, frizzled-5",hFzd-5,no effect
same,"effect on Wnt3a/Wnt5a-induced differentiation, α-SMA levels",C-FIT cells,completely blocks this differentiation
same,positive and negative dP/dt versus saline,myocardial infarction [3],higher positive dP/dt and a lower negative dP/dt value
same,infarct area size versus saline,infarct area; 2 and 5 weeks after MI,significantly smaller
same,thickness of the infarct area versus saline,infarct area; 2 and 5 weeks after MI,significantly thicker
same,myofibroblast numbers in the infarct area versus saline,infarct area; five weeks post-MI,significantly elevated number
same,blood vessels in the infarct area versus saline,infarct area; five weeks treatment,increased amount of blood vessels
same,collagen levels in the infarct area versus saline,infarct area; five weeks treatment,reduced collagen levels
same,α-SMA levels in infarcts versus saline,"infarct area; five-week-old infarcts, qPCR and Western blotting",significantly higher α-SMA levels
same,myofibroblast numbers in the infarct area versus saline,infarct area; two weeks post-MI,more than four-fold higher; also recorded: four-fold more myofibroblasts

# Reference: patent publication US20150071856A1, “ANTAGONISTIC PEPTIDES FOR FRIZZLED-1 AND FRIZZLED-2” (Universiteit Maastricht, priority 2013, published 2015)
